The source made the active and inactive calls. No cut-off for these calls is given here.
Tests used:
[1] = target: Acetylcholinesterase (Electrophorus electricus, UniProt O42275)
Description: Inhibition of electric eel AChE by Ellman's method

[2] = target: Cholinesterase (Equus caballus, UniProt P81908)
Description: Inhibition of equine serum BuChE by Ellman's method

[3] = target: Cholinesterase (Equus caballus) (UniProt P81908); experiment: Mixed reversible inhibition of equine serum BuChE assessed as decrease in Vmax and increase in Km at 3.13 to 12.5 uM by Lineweaver-burk plot analysis; conditions: dose 3.13-12.5 µM
[4] = target: Cholinesterase (Equus caballus) (UniProt P81908); experiment: Mixed reversible inhibition of equine serum BuChE assessed as decrease in Vmax and increase in Km at 1.56 to 6.25 uM by Lineweaver-burk plot analysis; conditions: dose 1.56-6.25 µM
[5] = target: Cholinesterase (Equus caballus) (UniProt P81908); experiment: Potency index,ratio of isatin IC50 to test compound IC50 for inhibition of equine serum BuChE

Acetylcholinesterase, sequence (O42275 whole entry): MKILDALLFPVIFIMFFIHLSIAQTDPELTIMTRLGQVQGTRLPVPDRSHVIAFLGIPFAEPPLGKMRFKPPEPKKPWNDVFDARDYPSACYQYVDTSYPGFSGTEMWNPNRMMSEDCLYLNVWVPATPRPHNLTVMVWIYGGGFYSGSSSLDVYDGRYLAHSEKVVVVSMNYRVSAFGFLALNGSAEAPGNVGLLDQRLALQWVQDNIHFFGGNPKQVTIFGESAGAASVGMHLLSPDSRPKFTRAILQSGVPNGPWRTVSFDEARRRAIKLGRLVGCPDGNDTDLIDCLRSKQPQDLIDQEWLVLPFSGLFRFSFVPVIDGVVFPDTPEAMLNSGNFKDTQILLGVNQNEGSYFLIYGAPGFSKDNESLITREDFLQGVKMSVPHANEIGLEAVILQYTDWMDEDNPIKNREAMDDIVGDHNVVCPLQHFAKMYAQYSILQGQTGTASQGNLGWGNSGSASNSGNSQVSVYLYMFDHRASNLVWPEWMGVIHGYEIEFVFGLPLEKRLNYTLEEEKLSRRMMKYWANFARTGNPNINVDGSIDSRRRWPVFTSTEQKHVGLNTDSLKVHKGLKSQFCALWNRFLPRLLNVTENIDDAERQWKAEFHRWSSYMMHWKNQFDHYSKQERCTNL
Cholinesterase, sequence (P81908 whole entry): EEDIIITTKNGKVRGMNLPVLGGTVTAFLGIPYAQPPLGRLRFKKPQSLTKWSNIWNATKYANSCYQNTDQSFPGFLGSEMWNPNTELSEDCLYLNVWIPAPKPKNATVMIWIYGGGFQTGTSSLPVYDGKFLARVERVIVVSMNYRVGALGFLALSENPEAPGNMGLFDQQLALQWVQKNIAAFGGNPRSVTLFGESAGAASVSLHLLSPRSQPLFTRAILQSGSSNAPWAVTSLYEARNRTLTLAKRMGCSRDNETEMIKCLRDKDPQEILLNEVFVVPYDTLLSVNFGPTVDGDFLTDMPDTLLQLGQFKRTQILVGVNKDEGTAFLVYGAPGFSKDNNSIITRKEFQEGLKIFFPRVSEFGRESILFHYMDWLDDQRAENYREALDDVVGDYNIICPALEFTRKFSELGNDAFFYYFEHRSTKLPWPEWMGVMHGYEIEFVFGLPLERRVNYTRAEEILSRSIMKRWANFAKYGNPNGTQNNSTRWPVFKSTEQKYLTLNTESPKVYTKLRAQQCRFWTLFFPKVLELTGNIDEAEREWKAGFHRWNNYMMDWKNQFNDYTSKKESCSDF
Cholinesterase (Equus caballus), sequence (P81908 whole entry): as above

SMILES	IC50 [1]	IC50 [2]	inhibition [3]	inhibition [4]	Ratio IC50 [5]
O=C1N(CCCN2C(=O)C(O)(c3c[nH]c4ccccc34)c3ccccc32)c2ccccc2C1(O)c1c[nH]c2ccccc12 (centres undefined)	> 50 µM	6.47 µM	–	–	–
O=C1N(CCCCCN2C(=O)C(O)(c3c[nH]c4ccccc34)c3ccccc32)c2ccccc2C1(O)c1c[nH]c2ccccc12 (centres undefined)	> 50 µM	–	Active	–	–
O=C1N(CCN2C(=O)C(O)(c3c[nH]c4ccccc34)c3ccccc32)c2ccccc2C1(O)c1c[nH]c2ccccc12 (centres undefined)	> 50 µM	> 50 µM	–	–	–
O=C1C(=O)N(CCCCCCCN2C(=O)C(=O)c3ccccc32)c2ccccc21	> 50 µM	3.2 µM	–	Active	300
O=C1C(=O)N(CCCCCN2C(=O)C(=O)c3ccccc32)c2ccccc21	> 50 µM	7.56 µM	–	–	–
O=C1N(CCCCCCCCN2C(=O)C(O)(c3c[nH]c4ccccc34)c3ccccc32)c2ccccc2C1(O)c1c[nH]c2ccccc12 (centres undefined)	> 50 µM	> 25 µM	–	–	–
O=C1N(CCCCCCCN2C(=O)C(O)(c3c[nH]c4ccccc34)c3ccccc32)c2ccccc2C1(O)c1c[nH]c2ccccc12 (centres undefined)	> 50 µM	13.2 µM	–	–	–
O=C1Nc2ccccc2C1(O)c1c[nH]c2ccccc12 (centres undefined)	1300 µM	357 µM	–	–	–
O=C1C(=O)N(CCCN2C(=O)C(=O)c3ccccc32)c2ccccc21	> 125 µM	> 125 µM	–	–	–
O=C1C(=O)N(CCN2C(=O)C(=O)c3ccccc32)c2ccccc21	> 125 µM	> 125 µM	–	–	–
O=C1N(CCCCN2C(=O)C(O)(c3c[nH]c4ccccc34)c3ccccc32)c2ccccc2C1(O)c1c[nH]c2ccccc12 (centres undefined)	> 50 µM	11.8 µM	–	–	–
O=C1C(=O)N(CCCCCCN2C(=O)C(=O)c3ccccc32)c2ccccc21	> 50 µM	> 50 µM	–	–	–
O=C1Nc2ccccc2C1=O [ISATIN]	> 1000 µM	> 1000 µM	–	–	–
O=C1N(CCCCCCN2C(=O)C(O)(c3c[nH]c4ccccc34)c3ccccc32)c2ccccc2C1(O)c1c[nH]c2ccccc12 (centres undefined)	> 50 µM	14 µM	–	–	–
O=C1C(=O)N(CCCCCCCCN2C(=O)C(=O)c3ccccc32)c2ccccc21	> 50 µM	> 50 µM	–	–	–
O=C1C(=O)N(CCCCN2C(=O)C(=O)c3ccccc32)c2ccccc21	> 125 µM	34.7 µM	–	–	–

From ChEMBL document CHEMBL5150026, “Selective butyrylcholinesterase inhibition by isatin dimers and 3-indolyl-3-hydroxy-2-oxindole dimers” (Bioorg Med Chem Lett, 2022)
